# Experimental data: patent publication US10440955B2, “Methods comprising a biocidal polyamine” (Curza Global, LLC, priority 2013, dated 2019)
# Several values for one entry are separate records, joined by “and”; a condition that tells them apart may be missing. Equal entries are not always repeated. Structures can show the parent of a compound that is named as a salt. Where two headings read alike, the source gives them in different places.
# What was measured:
# MRSA = assay: MIC, 96-well CAMHB, 10^5 to 10^2 CFU/mL in 24 hours; assay type: cell-based, Staphylococcus aureus; settings: Staphylococcus aureus, MRSA
# Summary of the method: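 Compound exposure was 24 h at 37 °C in CAMHB with an inoculum of ~5×10^5 CFU/mL from a 0.5 McFarland; eight replicates per concentration.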
# A. baumannii = assay: as above; assay type: cell-based, Acinetobacter baumannii; settings: for MIC: Acinetobacter baumannii
# Description: To determine the MIC of polyamine compounds, the protocol described herein was used.
# In brief, a 0.5 McFarland of each bacterial isolate was made. A 0.5 McFarland is a measure of turbidity in a liquid sample that contains approximately 1×10^∧8 CFU/mL. The 0.5 McFarland standard was diluted in cation adjusted Mueller Hinton Broth (CAMHB), and 50 μL of broth were added to a well of a 96-well plate. In addition, 50 μL of CAMHB that contained a desired concentration of antimicrobial were also added to the well for a final volume of 100 μL and a final concentration of approximately 5×10^4 CFU/well (which equated to approximately 5×10^5 CFU/mL). Each well contained a desired amount of polyamine compound in order to experimentally determine the MIC. Each 96-well plate was incubated at 37° C. for 24 hours. The contents of each well were plated on tryptic soy agar (TSA). TSA plates were incubated for 37° C. for 24 hours after which the number of CFU were counted and used to calculate the CFU/mL that remained after exposure to varying concentrations of compound. This procedure was repeated n=8 times for each concentration of antimicrobial.
# A 0.5 McFarland of A. baumannii is made. A 0.5 McFarland is a measure of turbidity in a liquid sample that contains approximately 7.5×10^7 CFU/mL. The 0.5 McFarland standard is diluted in CAMHB and 50 μL of broth is added to a well of a 96-well plate. In addition, 50 μL of CAMHB that contains a desired concentration of antimicrobial is added to the well for a final volume of 100 μL and a final concentration of approximately 5×10^4 CFU/well (which equates to approximately 5×10^5 CFU/mL). Each well contains a desired amount of CZ compound in order to experimentally determine the MIC. Each 96-well plate is incubated at 37° C. for 24 hours. The contents of each well is plated on tryptic soy agar (TSA). TSA plates is incubated at 37° C. for 24 hours after which the number of CFUs is counted and used to calculate the CFU/mL that remain after exposure to varying concentrations of compound. This procedure is repeated n=8 times for each concentration of antimicrobial. […]
# MRSA biofilms = assay: EBEC, high number biofilms on PEEK membranes, 10^9 to 10^2 CFU/PEEK membrane in 24 hours; assay type: cell-based, Staphylococcus aureus
# Description: In addition to determining the MIC and the MBEC of polyamine compounds against planktonic bacteria and low number biofilms, our group wanted to determine the efficacy of polyamine compounds against high number biofilms. To do so, biofilms were grown on the surface of polyetheretherketone (PEEK) membranes using a membrane biofilm reactor. This reactor is similar to the CDC biofilm reactor, but rather than growing biofilms on coupon surfaces, the reactor was modified to hold PEEK membranes. In short, to grow biofilms within this system, 500 mL of brain heart infusion (BHI) broth were inoculated with 1 mL of a 0.5 McFarland. The reactor was placed on a hot plate set at 34° C. and the bacteria were grown under batch conditions for 24 hours. Following this protocol, biofilms typically grow to 10^9 CFU/PEEK membrane. […] A solution of 10% BHI was then flowed through the reactor at a rate of 6.94 mL/min for an additional 24 hours. PEEK membranes were then removed and placed into 2 mL of CAMHB that contained a desired concentration of polyamine compound or antibiotic. The EBEC was defined as the concentration of antimicrobial required to reduce a biofilm from approximately 10^9 CFU/PEEK membrane to approximately 10^2 CFU/PEEK membrane in a 24-hour period.
# In addition to determining the MIC and the MBEC of compounds against planktonic bacteria and low number biofilms, the efficacy of the compounds of the invention against high number biofilms is determined. To do so, biofilms are grown on the surface of PEEK membranes using a membrane biofilm reactor (Williams, D. L., Haymond, B. S. & Bloebaum, R. D. Use of delrin plastic in a modified CDC biofilm reactor. Res J Microbiol 6, 425-429 (2011); Williams, D. L., Woodbury, K. L., Haymond, B. S., Parker, A. E. & Bloebaum, R. D. A modified CDC biofilm reactor to produce mature biofilms on the surface of PEEK membranes for an in vivo animal model application. Curr Microbiol 62, 1657-1663 (2011); Williams, D. L. et al., In Vivo Efficacy of a Silicone—Cationic Steroid Antimicrobial Coating to Prevent Implant-Related Infection. Biomaterials 33, 8641-8656 (2012); Williams, D. L. et al., Experimental model of biofilm implant-related osteomyelitis to test combination biomaterials using biofilms as initial inocula. J Biomed Mat Res A 100, 1888-1900 (2012)). This reactor is similar to the CDC biofilm reactor, but rather than growing biofilms on coupon surfaces, the reactor was modified to hold PEEK membranes. In short, to grow biofilms within this system, 500 mL of brain heart infusion (BHI) broth is inoculated with 1 mL of a 0.5 McFarland. The reactor is placed on a hot plate set at 34° C. and the bacteria grown under batch conditions for 24 hours. A solution of 10% BHI will then be flowed through the reactor at a rate of 6.94 mL/min for an additional 24 hours. Following this protocol, biofilms typically grow to 10^9 CFU/PEEK membrane. PEEK membranes is removed and placed into 2 mL of CAMHB that contain a desired concentration of the test compound. The EBEC is defined as the concentration of antimicrobial required to reduce a biofilm from approximately 10^9 CFU/PEEK membrane to approximately 10^2 CFU/PEEK membrane in a 24-hour period.
# EBEC data were collected to determine the efficacy of CZ-52, CZ-58 and traditional antibiotics against high number biofilms containing approximately 10^9 CFU grown on the surface of a polyetheretherketone (PEEK) membrane.
compound,measurement,setting,value
"NCCCNCCCNCc1ccccc1 [CZ-7, benzylnorspermidine]",MIC,"MRSA; Table 3A c1, read-out: MICs (μg/mL): MRSA (first MRSA column)",> 500 µg/mL
same,MIC,"MRSA; Table 4, value in parentheses, read-out: MIC μg/mL (μM) MRSA",> 2260 µM
same,MIC,"MRSA; Table 4, read-out: MIC μg/mL (μM) MRSA",> 500 µg/mL
same,MIC,"MRSA; Table 5, read-out: MIC (MRSA)",> 100 µM
same,MIC,"A. baumannii; Table 3A c3, read-out: MICs (μg/mL): A. baumannii",> 500 µg/mL
same,MIC,"A. baumannii; Table 4, value in parentheses, read-out: MIC μg/mL (μM) A. baumannii",> 2260 µM
same,MIC,"A. baumannii; Table 4, read-out: MIC μg/mL (μM) A. baumannii",> 500 µg/mL
same,EBEC μg/mL (μM) MRSA,MRSA biofilms; Table 4,">5,000 μg/mL"
same,EBEC μg/mL (μM) MRSA,"MRSA biofilms; Table 4, value in parentheses","(>22,590) μM"
"CN[C@H](CC(C)C)C(=O)N[C@H]1C(=O)N[C@@H](CC(N)=O)C(=O)N[C@H]2C(=O)N[C@H]3C(=O)N[C@H](C(=O)N[C@H](C(=O)O)c4cc(O)cc(O)c4-c4cc3ccc4O)[C@H](O)c3ccc(c(Cl)c3)Oc3cc2cc(c3O[C@@H]2O[C@H](CO)[C@@H](O)[C@H](O)[C@H]2O[C@H]2C[C@](C)(N)[C@H](O)[C@H](C)O2)Oc2ccc(cc2Cl)[C@H]1O [vancomycin, reference compound]",MIC,MRSA; read-out: MIC μg/mL (μM) MRSA,10 µg/mL and 6.9 µM
same,MIC,MRSA; read-out: MICs (μg/mL): MRSA (first MRSA column),10 µg/mL
same,EBEC μg/mL (μM) MRSA,MRSA biofilms; Table 4,">>25,000 μg/mL"
same,reduction of biofilms of MRSA,"MRSA biofilms; at 25,000 μg/mL, 24-hour period",< 1 log10 unit
"NCCCNCCCNCc1cc(CNCCCNCCCN)cc(-c2ccccc2)c1 [CZ-58, N^1,N^1′-([1,1′-biphenyl]-3,5-diylbis(methylene))bis(N^3-(3-ammoniopropyl)propane-1,3-diaminium) chloride]",MIC,A. baumannii; read-out: MIC (A. bumannii),50 to 100 µM
same,EBEC μg/mL (μM) MRSA,MRSA biofilms; Table 4,"1,500 μg/mL"
Polymyxin B sulfate [reference compound],MICs (μg/mL): A. baumannii,A. baumannii; Table 3A c3,2 µg/mL
same,MIC μg/mL (μM) A. baumannii,A. baumannii; Table 4,1 µg/mL
same,MIC μg/mL (μM) A. baumannii,"A. baumannii; Table 4, value in parentheses",(0.7) μM
"CC(C)CNCCCNCCCNCc1cc(CNCCCNCCCNCC(C)C)cc(-c2ccccc2)c1 [CZ-86, N^1,N^1′-([1,1′-biphenyl]-3,5-diylbis(methylene))bis(N^3-(3-(isobutylamino)propyl)propane-1,3-diamine), hydrochloride salt]",MIC,MRSA; read-out: MIC (MRSA),< 50 µM
same,MIC,A. baumannii; read-out: MIC (A. bumannii),< 50 µM
"NCCCNCCCNCc1cccc(CNCCCNCCCN)c1 [CZ-25, N^1,N^1′-(1,3-phenylenebis(methylene))bis(N3-(3-ammoniopropyl)propane-1,3-diaminium) chloride]",MIC,A. baumannii; read-out: MIC (A. bumannii),> 100 µM
same,EBEC μg/mL (μM) MRSA,MRSA biofilms; Table 4,">5,000 μg/mL"
"NCCCNCCCNCc1cc(CNCCCNCCCN)cc(CNCCCNCCCN)c1 [CZ-52, N^1,N^1′,N^1″-(benzene-1,3,5-triyltris(methylene))tris(N^3-(3-aminopropyl)propane-1,3-diamine), hydrochloride salt]",EBEC μg/mL (μM) MRSA,MRSA biofilms; Table 4,250 µg/mL
same,EBEC μg/mL (μM) MRSA,"MRSA biofilms; Table 4, value in parentheses",(500) μM
